Data from US10940188B2, “Compounds and methods for treatment and prevention of Flavivirus infection” (priority 2016, dated 2021).
Where two headings read alike, the source gives them in different places.

Columns and labels:
[1] = tested on: ZIKV-induced cell death in SNB-19 cells; assay: ATP cell viability assay for ZIKV-induced cell death, SNB-19 cells; type: cell-based, human; conditions: for IC50: Homo sapiens
Protocol: (§1) The reagent was reconstituted and prepared as described by the manufacturer. In order to measure the cell death caused by ZIKV infection, cells were cultured for 16 hours at 37° C. with 5% CO2 in assay plates, followed by the addition of ZIKV solution and incubation at 37° C. with 5% CO2 for 72 hours. ATPlite, the ATP monitoring reagent, was then added to the assay plates and they were incubated for 15 minutes. The resulting luminescence was measured using the ViewLux plate reader (Perkin Elmer). Data were normalized using the wells without cells as a control for 100% cell killing, and cell-containing wells without ZIKV infection were used as full cell viability (0% cell killing). […]
as §1, with “The ATPlite luminescence assay system assay kit (PerkinElmer) was used to determine cell viability. The reagent” for “The reagent”, “by the manufacture. In order” for “by the manufacturer. In order”, “followed by addition of” for “followed by the addition of”, “plates and incubated for” for “plates and they were incubated for”, “Elmer). Data was normalized using” for “Elmer). Data were normalized using”

[2] = tested on: ZIKV-induced caspase 3/7 activity in SNB-19 cells; assay: Caspase 3/7 activity assay, ZIKV-infected SNB-19 cells; type: cell-based; conditions: Homo sapiens
Protocol: (§2) Caspase-Glo 3/7 assay kit (catalog number G8092; Promega, Madison, Wis.) was used to detect caspase 3/7 activity. Reagents were reconstituted as described in the protocol from the manufacturer. Polystyrene plates (384-well and 1536-well; regular tissue culture treated and PDL coated) were purchased from Greiner Bio-One (Monroe, N.C.). Cells were seeded in 384- and 1536-well assay plates and cultured at 37° C. with 5% CO2 for 16 hours. ZIKV solution was added to cells, followed by incubation at 37° C. with 5% CO2 for 6 hours. Caspase-Glo 3/7 was added to each well, unless otherwise specified, and incubated at room temperature for 30 minutes. The luminescence intensity of the assay plates was measured using a ViewLux plate reader (PerkinElmer). Data were normalized by using the cell-containing wells without ZIKV as a negative control (0% induction of caspase 3/7 activity) and wells containing ZIKV infected cells that induced caspase 3/7 activity were used as a positive control (100% induction of caspase 3/7 activity). […]
(§3) Caspase-Glo 3/7 assay kit (Promega) was used to detect caspase 3/7 activity. Reagents were reconstituted as described in the protocol from the manufacturer. Cells were seeded in 384- and 1536-well assay plates and cultured at 37° C. with 5% CO2 for 16 hours. ZIKV solution was added to cells, followed by incubation at 37° C. with 5% CO2 for 6 hours. Caspase-Glo 3/7 was added to each well at a 1:1 ratio, unless otherwise specified, and incubated at room temperature for 30 minutes. The luminescence intensity of the assay plates was measured using a ViewLux plate reader (PerkinElmer). Data was normalized by using the cell-containing wells without ZIKV as a negative (0% induction of caspase 3/7 activity) control and wells containing ZIKV infected cells that induced caspase 3/7 activity were used as a positive control (100% induction of caspase 3/7 activity). […]

[3] = tested on: ZIKV-induced cell death in human astrocytes; assay: ATP cell viability assay for ZIKV-induced cell death, human astrocytes; type: cell-based; conditions: for IC50: Astrocyte, read-out: Cell viability (IC50, uM) Astrocyte
[4] = tested on: ZIKV-induced caspase 3/7 activity in hNPCs; assay: Caspase 3/7 activity assay, ZIKV-infected hNPCs; type: cell-based; conditions: Homo sapiens; for IC50: read-out: Caspase 3 (IC50, uM) NPCs; for Emax: read-out: Caspase 3 (efficacy, %) NPCs
Protocol: Caspase-Glo 3/7 assay kit (catalog number G8092; Promega, Madison, Wis.) was used to detect caspase 3/7 activity. Reagents were reconstituted as described in the protocol from the manufacturer. Polystyrene plates (384-well and 1536-well; regular tissue culture treated and PDL coated) were purchased from Greiner Bio-One (Monroe, N.C.). Cells were seeded in 384- and 1536-well assay plates and cultured at 37° C. with 5% CO2 for 16 hours. ZIKV solution was added to cells, followed by incubation at 37° C. with 5% CO2 for 6 hours. Caspase-Glo 3/7 was added to each well, unless otherwise specified, and incubated at room temperature for 30 minutes. The luminescence intensity of the assay plates was measured using a ViewLux plate reader (PerkinElmer). Data were normalized by using the cell-containing wells without ZIKV as a negative control (0% induction of caspase 3/7 activity) and wells containing ZIKV infected cells that induced caspase 3/7 activity were used as a positive control (100% induction of caspase 3/7 activity).
Human NPCs were seeded onto PDL coated 1536-well assay plates at 250 cells per 3 μl/well and incubated at 37° C. in 5% CO2 for 16 hours. Test compounds dissolved in DMSO were transferred to assay plates at a volume of 23 nl/well by an automated pintool workstation (Wako Automation, San Diego, Calif.). Compounds were incubated with cells for 30 minutes at 37° C. in 5% CO2, immediately followed by the addition of 2 μl/well of ZIKV. Incubation time of compound-treated cells with ZIKV varied based on assay format. Experiments measuring virus-induced caspase 3/7 activity required a 6 hour incubation of ZIKV in the presence compounds at 37° C. in 5% CO2. Following this incubation, 3.5 μl/well of caspase 3/7 reagent mixture was added to assay plates. The plates were incubated for 30 minutes at room temperature, and the resultant luminescence signal was measured using a ViewLux plate reader (Perkin Elmer). Experiments measuring virus-induced cell death required a 72-hour incubation of ZIKV in the presence of compounds at 37° C. in 5% CO2. Following this incubation, 3.5 μl/well of ATP content detection reagent was added to assay plates, incubated for 30 minutes at the room temperature, and the resultant luminescence signal was measured in a ViewLux plate reader.
Caspase-Glo 3/7 assay kit (Promega) was used to detect caspase 3/7 activity. Reagents were reconstituted as described in the protocol from the manufacturer. Cells were seeded in 384- and 1536-well assay plates and cultured at 37° C. with 5% CO2 for 16 hours. ZIKV solution was added to cells, followed by incubation at 37° C. with 5% CO2 for 6 hours. Caspase-Glo 3/7 was added to each well at a 1:1 ratio, unless otherwise specified, and incubated at room temperature for 30 minutes. The luminescence intensity of the assay plates was measured using a ViewLux plate reader (PerkinElmer). Data was normalized by using the cell-containing wells without ZIKV as a negative (0% induction of caspase 3/7 activity) control and wells containing ZIKV infected cells that induced caspase 3/7 activity were used as a positive control (100% induction of caspase 3/7 activity).
Human NPCs were seeded onto PDL coated 1536-well assay plates at 250 cells per 3 μl/well and incubated at 37° C. in 5% CO2 for 16 hours. Test compounds dissolved in DMSO were transferred to assay plates at a volume of 23 nl/well by an automated pintool workstation (Wako Automation, San Diego, Calif.). Compounds were incubated with cells for 30 minutes at 37° C. in 5% CO2, immediately followed by the addition of 2 μl/well of ZIKV. Incubation time of compound-treated cells with ZIKV varied based on assay format. Experiments measuring virus induced caspase 3/7 activity required a 6 hour incubation of ZIKV in the presence compounds at 37° C. in 5% CO2. […]

[5] = tested on: ZIKV-induced caspase 3/7 activity in human astrocytes; assay: Caspase 3/7 activity assay, ZIKV-infected human astrocytes; type: cell-based; conditions: Astrocyte; for IC50: read-out: Caspase 3 (IC50, uM) Astrocyte; for Emax: read-out: Caspase 3 (efficacy, %) Astrocyte
Protocol: as §2, §3

[6] = ZIKV-infected SNB-19 cells, read-out: Caspase 3 (IC50, uM) SNB-19
[7] = ZIKV-infected SNB-19 cells, read-out: Caspase 3 (efficacy, %) SNB-19
[8] = ZIKV-infected SNB-19 cells, read-out: Cell viability (IC50, uM) SNB-19

SMILES	Cell viability (efficacy, %) SNB-19 ([1]; ZIKV-infected SNB-19 cells)	IC50 [2, 6]	Emax [2, 7]	Cell viability (efficacy, %) Astrocyte ([3]; ZIKV-infected human astrocytes)	IC50 ([4]; ZIKV-infected hNPCs)	Emax ([4]; ZIKV-infected hNPCs)	IC50 ([5]; ZIKV-infected human astrocytes)	Emax ([5]; ZIKV-infected human astrocytes)	IC50 [1, 8]	IC50 ([1]; SNB-19, read-out: Cell viability (IC50, uM) SNB-19)	IC50 ([2]; SNB-19, read-out: Caspase 3 (IC50, uM) SNB-19)	Emax ([2]; SNB-19, read-out: Caspase 3 (efficacy, %) SNB-19)	IC50 ([3]; Homo sapiens)	Emax [4]	IC50 ([5]; Homo sapiens)	Emax ([5]; Homo sapiens)	IC50 ([3]; ZIKV-infected human astrocytes)
COc1ccc(-c2coc3cc(O)ccc3c2=O)cc1 [Formononetin]	0.0%	12.3 µM	104%	0.0%	10.9 µM	88.3%	14.6 µM	94.7%									
O=c1c(-c2ccc(O)cc2)coc2cc(O[C@@H]3O[C@H](CO)[C@@H](O)[C@H](O)[C@H]3O)cc(O)c12 [Genistin]	0.0%	23.1 µM	58.1%	0.0%	17.3 µM	58.6%	25.9 µM	60.2%									
COc1ccc([C@@H]2CC(=O)c3c(O)cc(O)cc3O2)cc1O [Hesperetin]	0.0%	17.3 µM	86%	0.0%	10.9 µM	79.6%	16.4 µM	72.7%									
O=C(/C=C/c1ccc(O)cc1)c1ccc(O)cc1O [Isoliquiritigenin]	36.3%	2.18 µM	96.9%	0.0%	1.84 µM	89%	3.08 µM	95.1%	3.08 µM								
Cc1oncc1C(=O)Nc1ccc(C(F)(F)F)cc1 [Leflunomide]	0.0%	3.27 µM	106%	0.0%	1.38 µM	97.8%	4.35 µM	98.1%									
O=C1C[C@@H](c2ccc(O)cc2)Oc2cc(O)cc(O)c21 [Naringenin]	0.0%	15.5 µM	66.3%	0.0%	15.5 µM	63.4%	17.3 µM	65.2%									
COc1cccc2c1C(=O)c1c(O)c3c(c(O)c1C2=O)C[C@@](O)(C(=O)CO)C[C@@H]3O[C@H]1C[C@H](N2CCO[C@H](OC)C2)[C@H](O)[C@H](C)O1 [Nemorubicin]	117%			146%						0.41 µM	30.8 µM	53.1%	0.87 µM	82.9%	15.5 µM	42.6%	
CC(=O)Oc1ccccc1C(=O)Nc1ncc([N+](=O)[O-])s1 [Nitazoxanide]	62.1%	2.24 µM	86.4%	53.6%	1.26 µM	82.3%	2 µM	90.3%	23.7 µM								31.6 µM
O=C(Nc1ccc(OC(F)(F)F)cc1)c1sccc1NCc1ccnc2ccccc12 [OSI-930]	71.2%	6.9 µM	114%	0.0%	6.9 µM	96.9%	8.2 µM	91.5%	3.08 µM								
